Marks after values point to notes of the source that are not given here.
How the values were obtained:
[1] = molecular target: DNA from salmon sperm; experiment: UV-Vis spectrophotometric titration, association with DNA from salmon sperm; type: binding; conditions: 1:1 complex, Tris-HCl buffer pH 7.44, CDNA 2.5 × 10^–7 M, BindFit
Method: The interaction of GIS with a series of synthesized pillar[5]arenes 1–4 and DNA was studied by UV-Vis spectroscopy. UV-Vis spectroscopy is a universal method to study the complex properties of synthetic receptors. The interaction of GIS with DNA from salmon sperm was initially studied (Figure 5). DNA from salmon sperm was chosen as a model substrate due to its relatively low molecular weight and small size. The experiments were carried out in a Tris-HCl buffer system (pH = 7.44).
The association constants were determined by spectrophotometric titration to quantify the interaction of DNA with GIS. The UV-Vis spectra of the DNA–GIS system were recorded in such a way that the DNA concentration remained constant (2.5 × 10^–7 M), and the herbicide concentration ratio increased from 1:0.3 to 1:10 (Figure 5b). The obtained experimental data were processed by the BindFit program. The association constant of a 1:1 complex was calculated (Figure S23). The logarithm of the association constant of DNA with GIS was determined as lgKa = 4.92. […] However, in this case, the association constant of the complexes was determined with a large error.
Further, the interaction of macrocycles 1–4 with the DNA from salmon sperm in Tris-HCl was studied by UV-Vis spectroscopy. […] The association constant of compound 4-DNA complex was determined by spectrophotometric titration. […] The logarithm of the association constant of pillar[5]arene 4 with the DNA was determined as lgKa (4–DNA) = 5.24.
The association constant of compound 1-DNA complex was also determined by spectrophotometric titration (Figure S25b). The logarithm of the association constant of pillar[5]arene 1 with DNA was determined as lgKa(1–DNA) = 4.88 (Figure S27). […]
buffer solution. The UV spectra of the solutions were then recorded. The stability constant of complex was calculated by Bindfit. […]
volume of 3 mL with Tris‐HCl buffer solution. The UV spectra of the solutions were then recorded. The stability constant of each complex was calculated by Bindfit. […]
stability constant of complex was calculated by Bindfit. […]

[2] = Dynamic light scattering of macrocycle aggregates in water; type: physicochemical; conditions: H2O, 298 K
Method: The next stage of the work was the study of aggregation properties of both previously synthesized ester derivatives of amino acids 1 and 2, and macrocyclic betaine derivatives 3 and 4 by dynamic light scattering (DLS). The study was carried out in water in the 1 × 10^–6–1 × 10^–4 M concentration range (Figures S11–S22). The size of associates increases with decreasing macrocycle 1 concentration in solution (Table 1). A different pattern is observed for betaine derivative 3. Thus, the particles become coarser, and the polydispersity index (PDI) of the systems increased with an increase in compound 3 concentration, which is probably due to the formation of β-sheets by oligopeptide substituents. The presence of two oppositely charged fragments in one substituent leads to the fact that compound 3 becomes similar to surfactant molecules in terms of its aggregation properties.

[3] = test system: A549 cells; experiment: MTT test, A549 cells; conditions: for IC50: A549, MTT, 24 h; for cytotoxic activity: A549, concentration range 2–100 μg/mL
Method: (§1) The next stage of this work was the study of pillar[5]arenes 1–4 ability to inhibit the viability and proliferative activity of embryonic lung epithelial (LEC) and human lung adenocarcinoma (A549) cells using the MTT test.
(§2) Further, the ability of GIS to inhibit the viability and proliferative activity of LEC and A549 cells was studied by the MTT test. […] The average inhibitory concentration (IC50) was calculated for GIS (Table 3). […]
(§3) 1.6. Cytotoxicity of pillar[5]arenes 1–4, GIS and their mixtures on A549 and LEC Cell Lines […]
(§4) activity of LEC cells and A549 cells was investigated using the MTT test according to [2]. A549 – human alveolar adenocarcinoma cell line (ATCC, Rockville, Maryland, USA) and cow embryo lung epithelial (LEC) cells (Animal Cell Culture Collection of Russian Academy of Agricultural Science, Kazan, Russia) were cultured in DMEM (GIBCO, Waltham, MA, USA) medium supplemented with 10% serum and 100 units/mL of penicillin (PanEco, Moscow, Russia) and streptomycin (PanEco, Moscow, Russia) in a humidified atmosphere with 5% CO2 at 37 °C. Cells were seeded in 96‐well plates at a concentration of 10^4 cells/well. After 24 h of cultivation, the medium was removed from the wells and replaced with a fresh one with the addition of the test substances. The volume of the culture medium in the wells was 100
(§5) μL. After 24 h incubation of cells in the presence of substances, the medium in the wells was replaced with a fresh one containing MTT reagent at a final concentration of 0.5 mg/mL. The cells were incubated with MTT for 4 h at 37 °C in an atmosphere of 5% CO2. Then, the medium was aspirated from the wells and 100 μL of dimethyl sulfoxide was added. Probes were incubated at 37 °C for 15 min in the dark for the formazan crystals to dissolve. The optical density of the formazan solution in the wells was measured using a plate reader (BioRad xMarkTM Microplate Spectrophotometer, USA) at a wavelength of 570 nm.
(§6) Three series of experiments were carried out with at least 8 replications for each variant in the series. […]

[4] = test system: LEC cells; experiment: MTT test, LEC cells; conditions: for IC50: MTT, 24 h; for cytotoxic activity: concentration range 2–100 μg/mL
Method: as §1, §2, §3, §4, §5, §6

[5] = test system: A549 cells; experiment: MTT assay, combined action of macrocycles with GIS on A549 cells; type: cell-based, human; conditions: A549, pillararene 1 × 10^–5 M with GIS 3.47 × 10^–2 M
Method: The ability to inhibit the viability and proliferative activity of A549 cells of macrocycles 1–4 in the presence of GIS was studied using the MTT assay. […] The developed approach opens up the possibility of creating pillar[5]arene-based herbicide antidotes. […]
fresh one with the addition of the test substances.
Then, the medium was aspirated from the wells
and 100 μL of dimethyl sulfoxide was added.
the formazan crystals to dissolve. […]
substances. […] After 24 h of incubation cells were […]

Compound | lgKa, logarithm of the association constant with DNA [1] | polydispersity index (PDI) ([2]; 1 × 10^–4 M) | size of aggregates d ([2]; 1 × 10^–4 M) | polydispersity index (PDI) ([2]; 1 × 10^–5 M) | size of aggregates d ([2]; 1 × 10^–5 M) | polydispersity index (PDI) ([2]; 1 × 10^–6 M) | size of aggregates d ([2]; 1 × 10^–6 M) | IC50 [3] | cytotoxic activity [3] | IC50 [4] | cytotoxic activity [4] | change of toxicity on combined action with GIS [5] | concentration at which cytotoxic effect was recorded ([3]; A549) | concentration without ability to reduce viability ([3]; A549) | concentration at which cytotoxic effect was recorded [4] | concentration without ability to reduce viability [4]
CCOC(=O)CNC(=O)CNC(=O)C[N+](C)(C)CCCNC(=O)COc1cc2c(OCC(=O)NCCC[N+](C)(C)CC(=O)NCC(=O)NCC(=O)OCC)cc1Cc1cc(OCC(=O)NCCC[N+](C)(C)CC(=O)NCC(=O)NCC(=O)OCC)c(cc1OCC(=O)NCCC[N+](C)(C)CC(=O)NCC(=O)NCC(=O)OCC)Cc1cc(OCC(=O)NCCC[N+](C)(C)CC(=O)NCC(=O)NCC(=O)OCC)c(cc1OCC(=O)NCCC[N+](C)(C)CC(=O)NCC(=O)NCC(=O)OCC)Cc1cc(OCC(=O)NCCC[N+](C)(C)CC(=O)NCC(=O)NCC(=O)OCC)c(cc1OCC(=O)NCCC[N+](C)(C)CC(=O)NCC(=O)NCC(=O)OCC)Cc1cc(OCC(=O)NCCC[N+](C)(C)CC(=O)NCC(=O)NCC(=O)OCC)c(cc1OCC(=O)NCCC[N+](C)(C)CC(=O)NCC(=O)NCC(=O)OCC)C2.[Br-].[Br-].[Br-].[Br-].[Br-].[Br-].[Br-].[Br-].[Br-].[Br-] [Compound 1] | 4.88 | 0.37 | 249 ± 17 nm | 0.35 | 286 ± 57 nm | 0.39 | 441 ± 81 nm | >100 * μg/mL | did not show statistically significant cytotoxic activity | >100 * μg/mL | did not show statistically significant cytotoxic activity | slight decrease in toxicity |  |  |  | 
C[N+](C)(CCCNC(=O)COc1cc2c(OCC(=O)NCCC[N+](C)(C)CC(=O)NCC(=O)NCC(=O)[O-])cc1Cc1cc(OCC(=O)NCCC[N+](C)(C)CC(=O)NCC(=O)NCC(=O)[O-])c(cc1OCC(=O)NCCC[N+](C)(C)CC(=O)NCC(=O)NCC(=O)[O-])Cc1cc(OCC(=O)NCCC[N+](C)(C)CC(=O)NCC(=O)NCC(=O)[O-])c(cc1OCC(=O)NCCC[N+](C)(C)CC(=O)NCC(=O)NCC(=O)[O-])Cc1cc(OCC(=O)NCCC[N+](C)(C)CC(=O)NCC(=O)NCC(=O)[O-])c(cc1OCC(=O)NCCC[N+](C)(C)CC(=O)NCC(=O)NCC(=O)[O-])Cc1cc(OCC(=O)NCCC[N+](C)(C)CC(=O)NCC(=O)NCC(=O)[O-])c(cc1OCC(=O)NCCC[N+](C)(C)CC(=O)NCC(=O)NCC(=O)[O-])C2)CC(=O)NCC(=O)NCC(=O)[O-] [Compound 3] |  | 0.55 | 565 ± 12 nm | 0.43 | 290 ± 38 nm | 0.39 | 276 ± 63 nm | >100 * μg/mL | did not show statistically significant cytotoxic activity | >100 * μg/mL | did not show statistically significant cytotoxic activity | No significant differences |  |  |  | 
CC(C)N.O=C(O)CNCP(=O)(O)O [GIS, glyphosate isopropylamine salt, reference compound] | 4.92 |  |  |  |  |  |  | 10,180 μg/mL |  | 11,430 μg/mL |  |  | ≥ 10000 µg/mL | ≤ 5000 µg/mL | ≥ 10000 µg/mL | ≤ 5000 µg/mL

Source: publication PMC10179701, “Towards Protection of Nucleic Acids from Herbicide Attack: Self-Assembly of Betaines Based on Pillar[5]arene with Glyphosate and DNA” (International Journal of Molecular Sciences, 2023)
